Results from US11978600B2, “Dielectric-insulation or arc-extinction fluid” (HITACHI ENERGY LTD, priority 2019, dated 2024).

Columns and labels:
[1] = Dielectric withstand test (breakdown voltage, step DC, uniform field); format: physicochemical
Description: In addition to these tests, the dielectric strength of a mixture containing a monohydrofluoroolefin according to various embodiments, specifically 2-C4HF7, and having a dew point of −5° C. and −30° C., respectively, was determined and compared to the respective dielectric strength of the perfluoroketone decafluoro-3-methylbutan-2-one (“C5”).
Specifically, dielectric withstand tests were performed under DC (step DC, rise-time 300 ns, maximum application time 30 s) in a small vessel (6 L) and custom-built for dielectric testing. Large electrodes (12 cm diameter) with a Rogowski-profile and separated by a small (1.0 cm) distance were used to obtain a uniform field. Prior to the test, the electrodes were sandblasted to create a uniform surface roughness profile (Rt=40 μm).
A large amount of measurements (typically, more than 100) of measurements were performed; the peak voltage level used for each voltage application was randomly selected in the region close to U50, the voltage level for which a 50% breakdown probability is expected. The outcome (breakdown or hold) of each measurement is extracted from the time-dependence of the voltage across the test object. A probit regression is then used to fit the results to a probability distribution and to extract U50 and s, the width of the breakdown probability distribution, from the measurement data.

[2] = Decomposition rate under partial discharge in the presence of oxygen; format: physicochemical; conditions: gas mixture with O2 and CO2 (4 vol.-% 2-C4HF7, 4 vol.-% O2, 92 vol.-% CO2); needle-plane electrodes, positive DC 0-35 kV
Description: The decomposition rate of 2-C4HF7 in a gas mixture containing carbon dioxide and oxygen were tested. Specifically, a gas mixture containing 4 vol.-% 2-C4HF7, 4 vol.-% O2 and 92 vol.-% CO2 was subjected to partial discharge tests and the resulting decomposition was determined.
Specifically, an experimental setup consisting of a standard GIS-vessel (volume: 55 L) with a needle-plane electrode arrangement was used. A total of ten steel needles (R_100 μm) were connected to a high voltage DC power supply (positive, 0-35 kV). The gap spacing was set to 10 mm. The vessel was equipped with a fan keeping the gas mixture homogeneous during the experiments.

Structure (SMILES) | breakdown voltage ([1]; negative direct current, mixture, partial pressure 228 mbar at 20° C.) [kV/mm] | breakdown voltage ([1]; positive direct current, mixture, partial pressure 228 mbar at 20° C.) [kV/mm] | decomposition rate under partial discharge [2] [mmol/C] | breakdown voltage ([1]; negative direct current, mixture with O2 and CO2, dew point -5° C.) [kV/mm] | breakdown voltage ([1]; negative direct current, mixture with O2 and CO2, dew point -30° C.) [kV/mm] | breakdown voltage ([1]; positive direct current, mixture with O2 and CO2, dew point -5° C.) [kV/mm] | breakdown voltage ([1]; positive direct current, mixture with O2 and CO2, dew point -30° C.) [kV/mm]
FC(=C(F)C(F)(F)F)C(F)(F)F [2-C4F8, octafluorobutene] | 17.5 | 17.7 | 7 | – | – | – | –
O=C(C(F)(F)F)C(F)(C(F)(F)F)C(F)(F)F [C5, 1,1,1,3,4,4,4-heptafluoro-3-(trifluoromethyl)-butan-2-one] | – | – | – | 19.2 | 16.5 | 19.7 | 16.9
